As a reminder, the EC50 is the concentration needed to bring the measured effect to its halfway point.

T1 sequence (P41594 21-1212): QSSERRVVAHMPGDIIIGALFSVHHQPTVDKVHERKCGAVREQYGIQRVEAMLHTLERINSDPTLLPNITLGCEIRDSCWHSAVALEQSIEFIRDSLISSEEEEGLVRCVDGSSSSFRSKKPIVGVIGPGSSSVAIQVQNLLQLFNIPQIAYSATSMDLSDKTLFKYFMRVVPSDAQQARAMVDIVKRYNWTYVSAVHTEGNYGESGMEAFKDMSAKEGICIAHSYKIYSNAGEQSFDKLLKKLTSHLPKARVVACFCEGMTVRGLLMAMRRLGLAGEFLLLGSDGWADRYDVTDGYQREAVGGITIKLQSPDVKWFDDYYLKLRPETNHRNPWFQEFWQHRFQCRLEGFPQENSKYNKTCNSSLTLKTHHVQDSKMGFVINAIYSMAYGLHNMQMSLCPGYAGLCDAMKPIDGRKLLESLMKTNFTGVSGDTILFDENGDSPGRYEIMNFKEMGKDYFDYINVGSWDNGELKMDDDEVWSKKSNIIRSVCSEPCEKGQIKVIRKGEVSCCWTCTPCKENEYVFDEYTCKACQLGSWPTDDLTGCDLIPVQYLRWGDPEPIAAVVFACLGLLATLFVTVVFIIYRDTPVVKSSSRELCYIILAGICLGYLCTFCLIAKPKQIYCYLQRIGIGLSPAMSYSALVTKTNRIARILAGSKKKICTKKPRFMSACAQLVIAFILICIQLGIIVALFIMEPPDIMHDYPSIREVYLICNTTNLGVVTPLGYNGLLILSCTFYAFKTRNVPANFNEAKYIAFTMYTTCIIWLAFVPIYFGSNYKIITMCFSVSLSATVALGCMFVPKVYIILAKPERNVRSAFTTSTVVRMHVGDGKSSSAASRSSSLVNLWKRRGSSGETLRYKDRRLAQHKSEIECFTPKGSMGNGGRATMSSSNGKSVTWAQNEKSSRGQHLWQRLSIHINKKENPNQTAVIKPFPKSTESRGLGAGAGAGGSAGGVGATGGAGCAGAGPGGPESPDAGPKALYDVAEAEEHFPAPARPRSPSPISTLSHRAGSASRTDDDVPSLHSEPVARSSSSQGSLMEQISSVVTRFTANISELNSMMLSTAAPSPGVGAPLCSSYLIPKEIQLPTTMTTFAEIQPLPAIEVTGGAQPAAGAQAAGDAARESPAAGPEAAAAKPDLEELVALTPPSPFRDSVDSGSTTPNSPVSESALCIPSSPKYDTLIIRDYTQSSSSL

The test concerns the target T1, human mGluR5 (Homo sapiens, UniProt P41594).
T1 construct: expressed in transfected cells; host or cells: HEK293 cells stably expressing rat GLAST (EAAT1), stably transfected with pcDNAzeo3.1 carrying synthetic human mGluR5 DNA; zeocin-selected single clones
The test is described as follows: In vitro cell-based FLIPR calcium assay for positive modulation of the activation of mGluR5 by glutamate (PAM EC50). Particulars: HEK293/GLAST cells expressing recombinant human mGluR5; FLIPR calcium signal; glutamate added at its EC20; read-out: mGluR5 PAM EC50. The source says:
The DNA sequences encoding the structural regions for rat mGluR5 [Abe T, Sugihara H, Nawa H, Shigemoto R, Mizuno N, Nakanishi S (1992) “Molecular characterization of a novel metabotropic glutamate receptor mGluR5 coupled to inositol phosphate/Ca^2+ signal transduction” Journal of Biological Chemistry vol. 267, no. 19, pp. 13361-8] and human mGluR5 [Daggett L P, Sacaan A I, Akong M, Rao S P, Hess S D, Liaw C, Urrutia A, Jachec C, Ellis S B, Dreessen J, Knöpfel T, Landwehrmeyer G B, Testa C M, Young A B, Varney M, Johnson E C, Veliçelebi (1995) “Molecular and functional characterization of recombinant human metabotropic glutamate receptor subtype 5” Neuropharmacology vol. 34, no. […] 53, no. 3, pp. 355-369] was obtained from Dr. Michael Robinson of the Children's Hospital of Philadelphia under a Material Transfer Agreement. The pcDNAzeo3.1 vector DNA, carrying either rat mGluR5 or human mGluR5, was used to transfect a sample of the HEK293/GLAST cells, and single clones that express mGluR5 were isolated from the transfected cells using zeocin selection. Expression of mGluR5 was assessed by measurement of the transient fluorescence signal elicited from HEK293/GLAST/mGluR5 cells by glutamate following the loading of the cells with a calcium-sensitive dye using a FLIPR Tetra (Fluorometric Imaging Plate Reader) (Molecular Devices, Sunnyvale, Calif.) [O'Brien J A, Lemaire W, Chen T B, Chang R S, Jacobson M A, Ha S N, Lindsley C W, Schaffhauser H J, Sur C, Pettibone D J, Conn P J, Williams D L Jr. […] 64, no. 3, pp. 731-740; Assay Guidance Manual Version 5.0, 2008, Eli Lilly and Company and NIH Chemical Genomics Center; available online HEK293/GLAST/mGluR5 cells were grown in Dulbecco's Modified Eagle Medium (DMEM) supplemented with 10% dialyzed fetal bovine serum, 20 millimolar (mM) N-2-hydroxyethylpiperazine-N′-2-ethanesulfonic acid (HEPES), penicillin, streptomycin, 1% GlutaMax™ (Invitrogen) and 50 μg/ml zeocin. Cells were grown in the media to 70-80% confluency at 37° C. under 5% CO2, 95% humidity in poly-D-lysine coated coated flasks. Cells for assays were plated into 96-well sterile standard microtiter plates (pre-coated with poly-D-lysine) at a density of 50,000 cells per well in 0.2 milliliters of media. Plated cells were allowed to settle and adhere for 30 minutes at ambient conditions, and then were incubated overnight at 37° C. under 5% CO2, 95% humidity. Several such 96-well plates were typically prepared. On the day of the assays, the components of the FLIPR calcium 4 assay kit (Molecular Devices) were dissolved according to the instructions of the dye kit's manufacturer in assay buffer (Hank's balanced salt solution (HBSS) (Gibco) supplemented with 20 mM HEPES). After removal of the growth media from the first plate, cells were loaded with calcium dye by addition of calcium dye solution (50 microliters per well) and incubation at 25° C. for 45 to 60 minutes. The first plate was placed into the FLIPR Tetra, and a dilution series of glutamate solutions in assay buffer were added to wells on the plate, followed by acquisition of fluorescence data for several minutes. The fluorescence data (maximal signal as a 4-parameter sigmoidal function of log [glutamate]) were processed by non-linear regression methods using the software package GraphPad Prism 5.01 (GraphPad Software Inc.), to yield a glutamate concentration-response curve (CRC). […] These values were, respectively, the concentrations of glutamate that elicit 20%, 50%, and 80% of the maximal FLIPR signal (observed at saturating [glutamate]). The method for measuring the concentration response of a potentiator, or positive allosteric modulator (PAM), is described here as an example. For that purpose, subsequent assays were typically performed using assay buffer containing a glutamate concentration equal to that day's EC20. […] Addition to certain wells of the same buffer containing 0.3% DMSO, but without any test compound, provided a negative control.
In the case of `CC1CCn2c(nc3cc(C#Cc4cccc(F)c4)ccc3c2=O)C1` (stereo not drawn) [Example 4.10, 3-((3-fluorophenyl)ethynyl)-7-methyl-8,9-dihydro-6H-pyrido[2,1-b]quinazolin-11(7H)-one], the 50% effective concentration (EC50) was below 10 nM.
On to `Cc1ccc(C#Cc2ccc3c(=O)n4c(nc3c2)CCC2(CC4)OCCO2)cc1` [Example 7.32], for which the EC50 lay within 300 to 1000 nM.
Next, `CC1Cc2nc3cc(C#Cc4ccccn4)ccc3c(=O)n2C1` (single isomer, unassigned) [3.12/3.13 slower moving enantiomer (fraction 2), 2-methyl-6-(pyridin-2-ylethynyl)-2,3-dihydropyrrolo[2,1-b]quinazolin-9(1H)-one]: 10 to 30 nM; `CN1CCCC1Cn1cnc2cc(C#Cc3cccc(F)c3)ccc2c1=O` (stereo not drawn) [Example 1.21, 7-((3-fluorophenyl)ethynyl)-3-((1-methylpyrrolidin-2-yl)methyl)quinazolin-4(3H)-one]: 100 to 300 nM; `O=c1c(CO)cnc2cc(C#Cc3cccc(F)c3)ccn12` [Example 13.6, 8-((3-fluorophenyl)ethynyl)-3-(hydroxymethyl)-4H-pyrido[1,2-a]pyrimidin-4-one]: 300 to 1000 nM.
For `Cc1cnc(NC(=O)c2ccn3c(=O)c4c(nc3c2)CCCCC4)s1` [Example 28.3, N-(5-methylthiazol-2-yl)-11-oxo-6,7,8,9,10,11-hexahydrocyclohepta[d]pyrido[1,2-a]pyrimidine-3-carboxamide], the EC50 was 30 to 100 nM.
For `N#Cc1cc(C#Cc2ccc3c(=O)n4c(nc3c2)CCC2(CC4)OCCO2)ccc1F` [Example 7.19], the EC50 is 300 to 1000 nM.
Under `COCCn1cnc2cc(C#Cc3cccc(F)c3)cnc2c1=O` [Example 11.1, 7-((3-fluorophenyl)ethynyl)-3-(2-methoxyethyl)pyrido[3,2-d]pyrimidin-4(3H)-one] stands 30 to 100 nM.
Under `CCCn1cnc2cc(C#Cc3ccc(F)cc3)ccc2c1=O` [Example 1.6, 7-((4-fluorophenyl)ethynyl)-3-propylquinazolin-4(3H)-one] stands 100 to 300 nM.
Next, `CC(=O)N1CCc2nc3cc(C#Cc4cccc(F)c4)ccc3c(=O)n2CC1` [Example 8.17, 3-acetyl-8-((3-fluorophenyl)ethynyl)-2,3,4,5-tetrahydro-[1,4]diazepino[7,1-b]quinazolin-11(1H)-one]: 100 to 300 nM; `CCC1CCc2nc3cc(C#Cc4ccc(F)cc4)ccc3c(=O)n2CC1` (stereo not drawn) [Example 6.12, 8-ethyl-3-((4-fluorophenyl)ethynyl)-7,8,9,10-tetrahydroazepino[2,1-b]quinazolin-12(6H)-one]: below 10 nM; `O=C(Nc1ccc2c(=O)n3c(nc2c1)CCCCCC3)c1ccc(F)cc1` [Example 24.1, 4-fluoro-N-(13-oxo-7,8,9,10,11,13-hexahydro-6H-azocino[2,1-b]quinazolin-3-yl)benzamide]: 300 to 1000 nM.
As to `CC1CCCCc2nc3cc(C#Cc4ccccn4)ccc3c(=O)n21` (stereo not drawn) [Example 6.44, 10-methyl-3-(pyridin-2-ylethynyl)-7,8,9,10-tetrahydroazepino[2,1-b]quinazolin-12(6H)-one], the EC50 is below 10 nM.
Next, `CN1CCCn2c(nc3cc(C#Cc4ccc(F)cc4)ccc3c2=O)CC1` [Example 10.1, 11-((4-fluorophenyl)ethynyl)-3-methyl-3,4,5,6-tetrahydro-1H-[1,5]diazocino[2,1-b]quinazolin-8(2H)-one]: 10 to 30 nM; `N#Cc1ccc(C#Cc2ccc3c(=O)n4c(nc3c2)CCC2(CC4)OCCO2)cc1` [Example 7.39]: 300 to 1000 nM; `CCC1CCCc2nc3cc(C#Cc4ccccn4)ccc3c(=O)n21` (stereo not drawn) [Example 4.19, 9-ethyl-3-(pyridin-2-ylethynyl)-8,9-dihydro-6H-pyrido[2,1-b]quinazolin-11(7H)-one]: 10 to 30 nM.
On to `CC(C)N(C)C(C)c1nc2cc(C#Cc3ccccn3)ccc2c(=O)n1C` (stereo not drawn) [Example 2.22, 2-(1-(isopropyl(methyl)amino)ethyl)-3-methyl-7-(pyridin-2-ylethynyl)quinazolin-4(3H)-one], for which the EC50 lay in the range of 300 to 1000 nM.
Under `CCCN1CCc2nc3cc(C#Cc4cccc(F)c4)ccc3c(=O)n2CC1` [Example 8.8, 8-((3-fluorophenyl)ethynyl)-3-propyl-2,3,4,5-tetrahydro-[1,4]diazepino[7,1-b]quinazolin-11(1H)-one] stands 100 to 300 nM; under `CC1Cn2c(nc3cc(C#Cc4ccccn4)ccc3c2=O)CCN1C` (stereo not drawn) [Example 8.30, 2,3-dimethyl-8-(pyridin-2-ylethynyl)-2,3,4,5-tetrahydro-[1,4]diazepino[7,1-b]quinazolin-11(1H)-one], 100 to 300 nM; under `CC1CCCc2nc3cc(C#Cc4cccc(F)c4)ccc3c(=O)n21` (stereo not drawn) [Example 4.17, 3-((3-fluorophenyl)ethynyl)-9-methyl-8,9-dihydro-6H-pyrido[2,1-b]quinazolin-11(7H)-one], 10 to 30 nM.
Turning to `CC1CCc2nc3cc(C#Cc4ccccn4)cnc3c(=O)n2CC1` (stereo not drawn) [Example 11.9, 8-methyl-3-(pyridin-2-ylethynyl)-7,8,9,10-tetrahydropyrido[3′,2′:4,5]pyrimido[1,2-a]azepin-12(6H)-one], the concentration for a half-maximal effect (EC50) was 10 to 30 nM.
Under `N#CCN1CCc2nc3cc(C#Cc4cccc(F)c4)ccc3c(=O)n2CC1` [Example 8.14, 2-(8-((3-fluorophenyl)ethynyl)-11-oxo-1,2,4,5-tetrahyrdro-[1,4]diazepino[7,1-b]quinazolin-3(11H)-yl)acetonitrile] stands 10 to 30 nM; under `CN(C)CC1CCc2nc3cc(C#Cc4cccc(F)c4)ccc3c(=O)n2C1` (stereo not drawn) [Example 4.36, 8-((dimethylamino)methyl)-3-((3-fluorophenyl)ethynyl)-8,9-dihydro-6H-pyrido[2,1-b]quinazolin-11(7H)-one], 300 to 1000 nM; under `CC1CCc2nc3cc(C#Cc4ccccn4)ccc3c(=O)n2C1` (stereo not drawn) [Example 4.12, 8-methyl-3-(pyridin-2-ylethynyl)-8,9-dihydro-6H-pyrido[2,1-b]quinazolin-11(7H)-one], 10 to 30 nM.
With `CN1CCCc2nc3cc(C#Cc4cccc(F)c4)ccc3c(=O)n2CC1` [Example 10.4, 9-((3-fluorophenyl)ethynyl)-3-methyl-3,4,5,6-tetrahydro-1H-[1,4]diazocino[8,1-b]quinazolin-12(2H)-one], the EC50 was in the range of 30 to 100 nM.
Next, `CC1CCc2nc3cc(C#Cc4cccc(F)c4)ccc3c(=O)n2CC1` (stereo not drawn) [Example 6.7, 3-((3-fluorophenyl)ethynyl)-8-methyl-7,8,9,10-tetrahydroazepino[2,1-b]quinazolin-12(6H)-one]: below 10 nM; `O=c1c2ccc(C#Cc3ccc(F)cc3)cc2nc2n1CCOCC2` [Example 6.1, 8-((4-fluorophenyl)ethynyl)-4,5-dihydro-1H-[1,4]oxazepino[5,4-b]quinazolin-11(2H)-one]: below 10 nM.
On to `Cn1c(C2CCOC2)nc2cc(C#Cc3cccc(F)c3)ccc2c1=O` (stereo not drawn) [Example 2.2, 7-((3-fluorophenyl)ethynyl)-3-methyl-2-(tetrahydrofuran-3-yl)quinazolin-4(3H)-one], for which the half-maximal effective concentration (EC50) lay in the range of 300 to 1000 nM.
Next, `O=c1c2ccc(C#Cc3ccccc3)cc2nc2n1CCC1(CC2)OCCO1` [Example 7.1]: 10 to 30 nM; `CC(C)(O)c1cnc2cc(C#Cc3cccc(F)c3)ccn2c1=O` [Example 13.18, 8-((3-fluorophenyl)ethynyl)-3-(2-hydroxypropan-2-yl)-4H-pyrido[1,2-a]pyrimidin-4-one]: 100 to 300 nM.

Source of the values: US10077243B2, “Compounds for treating disorders mediated by metabotropic glutamate receptor 5, and methods of use thereof” (Sunovion Pharmaceuticals Inc., priority 2009, dated 2018).
